Test results published in patent US9353051B2, “Antiviral drugs for treatment or prevention of dengue infection” (Siga Technologies Inc., priority 2007, dated 2016).
pEC50: −log10 of the molar value.

System: Dengue-2 (Strain New Guinea C)
Assay: viral yield assay against Dengue-2 in Vero cells
Type: cell-based
Conditions: Dengue virus; Vero cells, MOI 0.1, harvested 48 hours post infection; read-out: Activity (anti-dengue 2 viral activity, EC50)
Experimental: Compounds that were active in the primary screen were also tested for activity in viral yield assays. […] Vero cells in 12-well plates were infected with dengue-2 virus at a multiplicity of infection (MOI) of 0.1, treated with compound (or DMSO as a control), incubated at 37° C., harvested 48 hours post infection and titered on Vero cells as described above. The EC50 was calculated through ExcelFit. Those compounds with activity below 1 μM are indicated with “A”, those with activity between 1 and 10 μM are indicated with “B”, those with activity between 10 and 25 μM with “C”, and those with activity above 25 μM are indicated with “D”.

`O=C(Cn1cnc2ccc([N+](=O)[O-])cc2c1=O)Nc1ccc(S(=O)(=O)N2CCCCC2)cc1` [Compound 134, 2-(6-Nitro-4-oxo-4H-quinazolin-3-yl)-N-[4-(piperidine-1-sulfonyl)-phenyl]-acetamide] and `CC1CCN(S(=O)(=O)c2ccc(NC(=O)Cn3cnc4ccccc4c3=O)cc2)CC1` [Compound 47, N-[4-(4-Methyl-piperidine-1-sulfonyl)-phenyl]-2-(4-oxo-4H-quinazolin-3-yl)-acetamide] cannot be ordered by pEC50: < 4.60 for the first, < 4.60 for the second.

`Cc1ccc(S(=O)(=O)N(C)c2ccc(OC(=O)Cn3cnc4ccccc4c3=O)cc2)cc1C` [Compound 117, (4-Oxo-4H-quinazolin-3-yl)-acetic acid 4-[(3,4-dimethyl-benzenesulfonyl)-methyl-amino]-phenyl ester] and `CCN(CC)S(=O)(=O)c1cc(C)c(C)c(NC(=O)Cn2cnc3ccccc3c2=O)c1` [Compound 90, N-(5-Diethylsulfamoyl-2,3-dimethyl-phenyl)-2-(4-oxo-4H-quinazolin-3-yl)-acetamide] cannot be ordered by pEC50: < 4.60 for the first, < 4.60 for the second.

`CCN(CC)S(=O)(=O)c1ccc(NC(=O)CNC(=O)c2ccc3ccccc3c2)cc1` [Compound 74, Naphthalene-2-carboxylic acid[(4-diethylsulfamoyl-phenylcarbamoyl)-methyl]-amide] and `CCN(CC)S(=O)(=O)c1ccc(NC(=O)CNC(=O)c2cccc(S(=O)(=O)N(C)C)c2)cc1` [Compound 70, N-[(4-Diethylsulfamoyl-phenylcarbamoyl)-methyl]-3-dimethylsulfamoyl-benzamide] cannot be ordered by pEC50: < 4.60 for the first, < 4.60 for the second.

`NS(=O)(=O)c1ccc(CCNC(=O)Cn2c(=O)cnc3ccccc32)cc1` [Compound 130, 2-(2-Oxo-2H-quinoxalin-1-yl)-N-[2-(4-sulfamoyl-phenyl)-ethyl]-acetamide] and `Cn1c(=O)c2ccccc2n(CC(=O)NCCc2ccc(S(N)(=O)=O)cc2)c1=O` [Compound 102, 2-(3-Methyl-2,4-dioxo-3,4-dihydro-2H-quinazolin-1-yl)-N-[2-(4-sulfamoyl-phenyl)-ethyl]-acetamide] cannot be ordered by pEC50: < 4.60 for the first, < 4.60 for the second.

Compared with `CCN(CC)S(=O)(=O)c1ccc(OC)c(NC(=O)CCn2nnc3ccccc3c2=O)c1` [Compound 27, N-(5-Diethylsulfamoyl-2-methoxy-phenyl)-3-(4-oxo-4H-benzo[d][1,2,3]triazin-3-yl)-propionamide], `CCN(CC)S(=O)(=O)c1ccc(C(=O)Nn2cnc3ccccc3c2=O)cc1` [Compound 67, 4-Diethylsulfamoyl-N-(4-oxo-4H-quinazolin-3-yl)-benzamide] is lower in pEC50: 4.60 to 5.00 for the first, < 4.60 for the second.

`CCN(CC(=O)NCCc1ccc(S(N)(=O)=O)cc1)Cc1nc2cc(OC)c(OC)cc2c(=O)[nH]1` [Compound 118, 2-[(6,7-Dimethoxy-4-oxo-3,4-dihydro-quinazolin-2-ylmethyl)-ethyl-amino]-N-[2-(4-sulfamoyl-phenyl)-ethyl]-acetamide] and `CCN(CC(=O)Nc1ccc(S(N)(=O)=O)cc1)Cc1nc2cc(OC)c(OC)cc2c(=O)[nH]1` [Compound 120, 2-[(6,7-Dimethoxy-4-oxo-3,4-dihydro-quinazolin-2-ylmethyl)-ethyl-amino]-N-(4-sulfamoyl-phenyl)-acetamide] cannot be ordered by pEC50: < 4.60 for the first, < 4.60 for the second.

Compared with `Cc1ccc(S(=O)(=O)N(C)C)cc1NC(=O)Cn1cnc2ccc(Cl)cc2c1=O` [Compound 129, 2-(6-Chloro-4-oxo-4H-quinazolin-3-yl)-N-(5-dimethylsulfamoyl-2-methyl-phenyl)-acetamide], `CCN(CC)S(=O)(=O)c1ccc(NC(=O)Cn2cnc3c(oc4ccccc43)c2=O)cc1` [Compound 24, N-(4-Diethylsulfamoyl-phenyl)-2-(4-oxo-4H-benzo [4,5]furo[3,2-d]pyrimidin-3-yl)-acetamide] is higher in pEC50: < 4.60 for the first, 4.60 to 5.00 for the second.

`NS(=O)(=O)c1ccc(NC(=O)CCc2nc3ccccc3c(=O)[nH]2)cc1` [Compound 109, 3-(4-Oxo-3,4-dihydro-quinazolin-2-yl)-N-(4-sulfamoyl-phenyl)-propionamide] was tested, and the pEC50 was < 4.60.
